Reference: US20240317791A1 (priority 2021, published 2024)
Values after ≈ are worked out from the molar mass of the structure shown. Where two headings read alike, the source gives them in different places.

Tests used:
Rhizopus microsporus = test: MIC determination against clinical isolates of the order Mucorales (CLSI M27, 4th edition); type: cell-based
Text: (§1) MIC: Minimum Inhibitory Concentration (MIC) is defined as the lowest concentration of an antimicrobial ingredient that is bacteriostatic.
(§2) Testing has been performed in triplicates for each isolate.

Rhizopus oryzae = test: as above; type: cell-based; conditions: Rhizopus arrhizus, strain 2086, clinical strain
Text: as §1, §2

Aspergillus spp. = conditions: 13 strains of Aspergillus spp.; cited from earlier work
Sporothrix schenkii = conditions: 1 strain of Sporothrix schenkii; cited from earlier work
Paecilomyces variotii = conditions: 2 strains Paecilomyces variotii; cited from earlier work
Candida sp. = conditions: cited from earlier work
Mucor circinelloides = test: MIC determination against ATCC and clinical isolates of the order Mucorales (CLSI M27, 4th edition); type: cell-based
Text: as §1, §2

Candida albicans = conditions: cited from earlier work
Mucor sp. = conditions: 4 strains of Mucor sp.; cited from earlier work
Candida auris = test: MIC determination against clinical isolates of Candida auris (CLSI M27, 4th edition); type: cell-based; conditions: Candidozyma auris, read-out: MIC values
Text: as §1, §2

rat erythrocytes = conditions: cited from earlier work
Penicillium spp. = conditions: 5 strains of Penicillium spp.; cited from earlier work
[1] = rats, cited from earlier work
[2] = single intravenous administration, amcipatricin diascorbate 1.25 mg/kg, amphotericin B 1 mg/kg

## CNc1ccc(C(=O)CC(O)CC[C@H](C)C2OC(=O)C[C@H](O)CC(=O)C[C@H](O)C[C@H](O)C[C@H](O)C[C@H](O)C[C@]3(O)C[C@H](O)[C@@H](C(=O)NCCN(C)C)C(C[C@@H](OC4OC(C)C(O)C(NC(=O)CN(C)C)C4O)/C=C/C=C/C=C/C=C\C=C/C=C/C=C/[C@@H]2C)O3)cc1 (stereo partly drawn) [Amcipatricin diascorbate, Candicidin D, 18-decarboxy-40-demethyl-3,7-dideoxo-N3′-[(dimethylamino)acetyl]-18-[[[2-(dimethylamino)ethyl]-amino]carbonyl]-3,7-dihydroxy-N47-methyl-5-oxo-, cyclic 15,19-hemiacetal, compound with L-ascorbic acid (1:2)]
Rhizopus microsporus; strain 3315, clinical strain
  MIC: 2 µg/mL (≈ 1.56 µM)
Rhizopus microsporus; strain 3435, clinical strain
  MIC: 4 µg/mL (≈ 3.12 µM)
Rhizopus oryzae
  MIC: 4 µg/mL (≈ 3.12 µM)
Aspergillus spp.
  geometric means of the minimum fungicidal concentrations: 12.53 µg/mL
Sporothrix schenkii
  MFC: 19.2 µg/mL (≈ 15 µM)
Paecilomyces variotii
  fungicidal activity compared to amphotericin B: most fungicidal
Candida sp.
  drug concentrations inhibiting conversion from yeast to mycelial form: 0.25 to 0.62 mg/L
Mucor circinelloides; ATCC24905, strain ATCC 24905, ATCC strain
  MIC: 4 µg/mL (≈ 3.12 µM)
Mucor circinelloides; strain 2109, clinical strain
  MIC: 4 µg/mL (≈ 3.12 µM)
Mucor circinelloides; strain 2707, clinical strain
  MIC: 4 µg/mL (≈ 3.12 µM)
Mucor circinelloides; strain 4280, clinical strain
  MIC: 4 µg/mL (≈ 3.12 µM)
Candida albicans
  fungicidal minimum inhibitory concentration against Candida albicans: 0.0075 µg/mL
Mucor sp.
  fungicidal activity compared to amphotericin B: most fungicidal
Candida auris; strain I.2 (No 2), clade I/India
  MIC: 2 µg/mL (≈ 1.56 µM)
Candida auris; strain I.3 (No 3), clade I/India
  MIC: 2 µg/mL (≈ 1.56 µM)
Candida auris; strain I.4 (No 4), clade I/India
  MIC: 2 µg/mL (≈ 1.56 µM)
Candida auris; strain II.1 (No 5), clade II/Japan
  MIC: 2 µg/mL (≈ 1.56 µM)
Candida auris; strain II.2 (No 1), clade II/India
  MIC: 2 µg/mL (≈ 1.56 µM)
Candida auris; strain III.7 (No 12), clade III/Switzerland
  MIC: 1 µg/mL (≈ 0.78 µM)
Candida auris; strain III.8 (No 13), clade III/Israel
  MIC: 1 µg/mL (≈ 0.78 µM)
Candida auris; strain III.9 (No 14), clade III/Israel
  MIC: 1 µg/mL (≈ 0.78 µM)
Candida auris; strain IV.1 (No 15), clade IV/Colombia
  MIC: 2 µg/mL (≈ 1.56 µM)
Candida auris; strain IV.10 (No 7), clade IV/Israel
  MIC: 2 µg/mL (≈ 1.56 µM)
Candida auris; strain IV.11 (No 8), clade IV/Israel
  MIC: 1 µg/mL (≈ 0.78 µM)
Candida auris; strain IV.12 (No 9), clade IV/Israel
  MIC: 1 µg/mL (≈ 0.78 µM)
Candida auris; strain IV.13 (No 10), clade IV/Israel
  MIC: 2 µg/mL (≈ 1.56 µM)
Candida auris; strain IV.14 (No 11), clade IV/Israel
  MIC: 2 µg/mL (≈ 1.56 µM)
Candida auris; strain IV.2 (No 16), clade IV/Colombia
  MIC: 2 µg/mL (≈ 1.56 µM)
Candida auris; strain IV.3 (No 17), clade IV/Colombia
  MIC: 2 µg/mL (≈ 1.56 µM)
Candida auris; strain IV.4 (No 18), clade IV/Colombia
  MIC: 2 µg/mL (≈ 1.56 µM)
Candida auris; strain IV.5 (No 19), clade IV/Colombia
  MIC: 2 µg/mL (≈ 1.56 µM)
Candida auris; strain IV.6 (No 20), clade IV/Colombia
  MIC: 2 µg/mL (≈ 1.56 µM)
Candida auris; strain IV.7 (No 21), clade IV/Colombia
  MIC: 2 µg/mL (≈ 1.56 µM)
Candida auris; strain IV.8 (No 22), clade IV/Colombia
  MIC: 2 µg/mL (≈ 1.56 µM)
Candida auris; strain IV.9 (No 6), clade IV/Israel
  MIC: 2 µg/mL (≈ 1.56 µM)
Rat erythrocytes
  haemolytic minimum concentration against rat erythrocytes: 18 mg/mL
Penicillium spp.
  geometric means of the minimum fungicidal concentrations: about 12 μg/mL
[1]; multiple administration 1.25 mg/kg/day for 7 days, intravenous, seventh day, serum
  AUC(0-00): 72100 ng·h/mL
[1]; multiple administration 1.25 mg/kg/day for 7 days, intravenous, seventh day
  serum elimination half-life: 41.4 h
[1]; [2]
  area under the curve to infinity (AUC(0-∞)): 35520 ng·h/mL
  elimination half-lives: 22.15 h
[1]; single intravenous administration
  tissue distribution: higher uptake by the kidneys, followed by the liver, spleen and lungs
